Results taken from patent US20100047173A1, “Methods for Using Optical Agents” (priority 2006, published 2010).

Assays:
[1] = Open-surgery fluorescence imaging of the cystic duct after IV fluorescein; format: in vivo; conditions: anesthetized pig, approximately 80 minutes post-IV administration of 6 mL of 20 mg/mL fluorescein in PBS
Experimental: FIG. 1 depicts green fluorescence from fluorescein traveling through a cystic duct in an anesthetized pig. The image was taken during open surgery, post-IV administration of 6 mL of a 20 mg/mL concentration of fluorescein in PBS.
The image was taken during open surgery, approximately 80 minutes post-IV administration of 6 mL of a 20 mg/mL concentration of fluorescein in PBS. The pig weighed about 82 pounds.

[2] = In vivo fluorescence time dependence at the ear after ICG bolus (blood clearance by the liver), normal vs partially hepatectomized rats; parameters: species or system rat
Experimental: ICG in powdered form was obtained from Sigma (St. Louis, Mo.). Solutions were made by diluting the appropriate amount of ICG in 10 mL of distilled water. Concentrations less than 1 mM were made by serial dilution of a 1 mM stock solution. For ICG fluorescence detection, a nominal 780 nm collimated solid state laser source was employed (LaserMax Inc. model No. LAS-300-780-5). The laser source was directed into the end of a 3.2 mm diameter glass fiber optic bundle (Oriel No. 77526). The other end of this laser delivery bundle was placed approximately 1 cm from the rat ear at an approximate 45° angle. A second similar fiber optic bundle for use as the fluorescence detection conduit was placed approximately 1 cm from the ear at an approximate 30° angle. The exit end of the detection fiber bundle was positioned at the focal length of a 20 mm focal length lens. […] A digital voltmeter monitored the output signal. […]
Female Fischer 344 rats weighing 173-195 g were used. […] The dye was subsequently administered via the indwelling catheter, and the clearance of the agent monitored. […]
To verify that the fluorescence decay curves were related to liver function, and to assess this methodology's feasibility to determine impaired liver function, the following experiment was done. […] A measurement of the time dependence of fluorescence at the ear pre- and post-bolus injection of the ICG solution was measured next. […]

[3] = Ex-vivo continuous wave fluorescence imaging of caecum and lower large intestine after IV ICG; format: in vivo; conditions: rat, post-IV administration of aqueous ICG solution, 780 nm excitation, 830 nm detection
Experimental: ICG in powdered form was obtained from Sigma (St. Louis, Mo.). Solutions were made by diluting the appropriate amount of ICG in 10 mL of distilled water. Concentrations less than 1 mM were made by serial dilution of a 1 mM stock solution.
The animals were anesthetized with rat cocktail (xylazine; ketamine; acepromazine 1.5: 1.5: 0.5) at 0.8 mL/kg via intraperitoneal injection. A 21 gauge butterfly infusion set equipped with a stopcock and two syringes containing heparinized saline was placed into the lateral tail vein of the rat. Patency of the vein was checked prior to administration of the agent via the butterfly apparatus.
A simple noninvasive in vivo continuous wave fluorescence imaging apparatus was employed as described below. Light from a LaserMax Inc. laser diode of nominal wavelength 780 nm and nominal power of 40 mW was launched into a fiber optic bundle. A defocusing lens in position after the bundle expanded the beam such that most of the rat was illuminated. The laser power at the output of the bundle was approximately one half of the input power. […]
The above imaging system may also used to view and quantify ex-vivo organs and tissues. […] Blue is indicative of high fluorescence, and red is indicative of low fluorescence.

fluorescence decay time, impaired liver function versus normal liver function ([2]; partially hepatectomized rats (33%-38% of liver ligated) vs normal rat, single exponential fit) | loss of initial fluorescence signal at the ear ([2]; rat, after about 15 minutes post-bolus injection of 500 mL of 1.007 mM ICG solution (FIG. 3)) | SMILES | appearance of fluorescence in the cystic duct [1] | fluorescence of feces in ex-vivo intestine (hepatobiliary excretion) [3]
 |  | O=C1OC2(c3ccc(O)cc3Oc3cc(O)ccc32)c2ccccc21 [fluorescein] | fluorescence from fluorescein traveling through the cystic duct | 
almost an order of magnitude longer | approximately 90% | CC1(C)C(/C=C/C=C/C=C/C=C2\N(CCCCS(=O)(=O)[O-])c3ccc4ccccc4c3C2(C)C)=[N+](CCCCS(=O)(=O)[O-])c2ccc3ccccc3c21.[Na+] [ICG] |  | feces that fluoresce due to the ICG within
